# Test results as given in patent US20240295567A1, “HYPOXIA BIOMARKER AND USE THEREOF” (Kyoto University, priority 2021, published 2024).
# Key:
# [1] = tested on: human prostate cancer-derived cell line DU145; assay: Viable cell quantification (Cell Count Reagent SF) after gamma ray irradiation with or without recombinant SPINK1 and anti-SPINK1 antibody; type: cell-based; conditions: recombinant SPINK1 purified protein for 24 hours, 0 or 4 Gy gamma rays, 3 further days, FIG. 43
# Protocol: Human prostate cancer-derived cell line DU145 was seeded into 96-well cell culture plates (4×10^2 cells per well in a 96-well plate when the dose of the subsequent irradiation is 0 Gy; and 1.2×10^3 cells per well when the dose is 4 Gy) and cultured in a CO2 incubator under a normal oxygen concentration overnight. Thereafter, the cells were cultured in serum-free medium for another 24 hours and then cultured in the presence or absence of recombinant SPINK1 purified protein and in the presence or absence of anti-SPINK1 antibody under normal oxygen conditions for 24 hours. The cells were then irradiated with 0 Gy or 4 Gy gamma rays and cultured under normal oxygen conditions for an additional 3 days. Viable cells were then quantified with Cell Count Reagent SF (produced by Nacalai Tesque, Inc., Catalog #07553-44).
# [2] = tested on: human prostate cancer-derived cell line DU145; assay: Colony formation test after gamma ray irradiation with or without recombinant SPINK1 protein; type: cell-based; conditions: rSPINK1 100 ng/ml for 24 hours, 0, 2, 4 or 6 Gy gamma rays, cultured 14 days, FIG. 41
# Protocol: Human prostate cancer-derived cell line DU145 was cultured in serum-free medium under normal oxygen (20%) conditions for 24 hours. The medium was then replaced with normal medium (containing 5% serum) containing a recombinant SPINK1 protein at a final concentration of 100 ng/ml or with normal medium not containing the recombinant SPINK1 protein. The cells were cultured under normal oxygen conditions for 24 hours. The cells were then irradiated with 0, 2, 4, or 6 Gy gamma rays and cultured for 14 days. A colony formation test was then performed.
substance,measurement,setting,value
"recombinant SPINK1 protein: recombinant SPINK1 (serine protease inhibitor Kazal type I) protein added to culture medium (DSLGREAKCYNELNGCTKIYDPVCGTDGNTYPNECVLCFENRKRQTSILIQKSGPC; UniProt P00995 24-79, looked up)",radiation resistance of the cells (viable cells),[1],radiation resistance of the cells was induced
same,radiation resistance of the cells (colony formation),[2],radiation resistance of the cells is induced
